# Laboratory results from ChEMBL document CHEMBL1149126, “3-phenyl-6-(2-pyridyl)methyloxy-1,2,4-triazolo[3,4-a]phthalazines and analogues: high-affinity gamma-aminobutyric acid-A benzodiazepine receptor ligands with alpha 2, alpha 3, and alpha 5-subtype binding selectivity over alpha 1” (J Med Chem, 2004).
# Molecular target: T1, GABA-A receptor; alpha-3/beta-3/gamma-2 (Homo sapiens) (UniProt P18507+P28472+P34903)
# Assay: Agonistic activity against GABA-A receptor alpha-3-beta-3-gamma-2
# Assay type: functional
row,Activity [%],SMILES
1,-38,Cc1nnc2c3ccccc3c(OCc3ccccn3)nn12

# Molecular target: T1, GABA-A receptor; alpha-3/beta-3/gamma-2 (Homo sapiens)
# Assay: Inverse agonistic activity against GABA-A receptor alpha-3-beta-3-gamma-2 subunits
# Assay type: functional
row,Activity [%],SMILES
1,-21,CC(C)c1nnc2c3ccccc3c(OCc3ccccn3)nn12
2,-26,c1ccc(COc2nn3c(C4CC4)nnc3c3ccccc23)nc1

# Molecular target: T1, GABA-A receptor; alpha-3/beta-3/gamma-2 (Homo sapiens)
# Assay: Partial agonistic activity against GABA-A receptor alpha-3-beta-3-gamma-2 subunits
# Assay type: functional
row,Activity [%],SMILES
1,-8,Cc1cccc(COc2nn3c(-c4ccccc4)nnc3c3ccccc23)n1

# Molecular target: T1, GABA-A receptor; alpha-3/beta-3/gamma-2 (Homo sapiens)
# Assay: (§1) Maximum percent change compared to GABA EC20 against GABA-A alpha-3-beta-3-gamma-2 receptor
# Assay type: functional
row,Efficacy [%],SMILES
1,-16,c1ccc(-c2nnc3c4ccccc4c(OCc4ccccn4)nn23)cc1

# Molecular target: T2, GABA-A receptor; alpha-1/beta-3/gamma-2 (Homo sapiens) (UniProt P14867+P18507+P28472)
# Assay: (§2) Maximum percent change compared to GABA EC20 against GABA-A alpha-1-beta-3-gamma-2 receptor
# Assay type: protein-complex assay
row,Efficacy [%],SMILES
1,-7,c1ccc(-c2nnc3c4ccccc4c(OCc4ccccn4)nn23)cc1

# Molecular target: T2, GABA-A receptor; alpha-1/beta-3/gamma-2 (Homo sapiens)
# Assay: as §2
# Assay type: functional
row,Efficacy [%],SMILES
1,-7,c1ccc(-c2nnc3c4ccccc4c(OCc4ccccn4)nn23)cc1

# Molecular target: T3, GABA-A receptor; alpha-2/beta-3/gamma-2 (Homo sapiens) (UniProt P18507+P28472+P47869)
# Assay: Partial agonistic activity against GABA-A receptor alpha-2-beta-3-gamma-2 subunits
# Assay type: functional
row,Activity [%],SMILES
1,-4,Cc1cccc(COc2nn3c(-c4ccccc4)nnc3c3ccccc23)n1

# Molecular target: T3, GABA-A receptor; alpha-2/beta-3/gamma-2 (Homo sapiens)
# Assay: Maximum percent change compared to GABA EC20 against GABA-A alpha-2-beta-3-gamma-2 receptor
# Assay type: functional
row,Efficacy [%],SMILES
1,-5,c1ccc(-c2nnc3c4ccccc4c(OCc4ccccn4)nn23)cc1

# Molecular target: T4, GABA-A receptor; alpha-5/beta-3/gamma-2 (Homo sapiens) (UniProt P18507+P28472+P31644)
# Assay: Maximum percent change compared to GABA EC20 against GABA-A alpha-5-beta-3-gamma-2 receptor
# Assay type: functional
row,Efficacy [%],SMILES
1,-5,c1ccc(-c2nnc3c4ccccc4c(OCc4ccccn4)nn23)cc1

# Molecular target: T1, GABA-A receptor; alpha-3/beta-3/gamma-2 (Homo sapiens)
# Assay: as §1
# Assay type: functional
row,Efficacy [%],SMILES
1,-16,c1ccc(-c2nnc3c4ccccc4c(OCc4ccccn4)nn23)cc1

# Molecular target: T5, GABA-A receptor; alpha-3/beta-3/gamma-2 (Homo sapiens, UniProt P18507+P28472+P34903)
# T5 sequence (P18507 whole entry): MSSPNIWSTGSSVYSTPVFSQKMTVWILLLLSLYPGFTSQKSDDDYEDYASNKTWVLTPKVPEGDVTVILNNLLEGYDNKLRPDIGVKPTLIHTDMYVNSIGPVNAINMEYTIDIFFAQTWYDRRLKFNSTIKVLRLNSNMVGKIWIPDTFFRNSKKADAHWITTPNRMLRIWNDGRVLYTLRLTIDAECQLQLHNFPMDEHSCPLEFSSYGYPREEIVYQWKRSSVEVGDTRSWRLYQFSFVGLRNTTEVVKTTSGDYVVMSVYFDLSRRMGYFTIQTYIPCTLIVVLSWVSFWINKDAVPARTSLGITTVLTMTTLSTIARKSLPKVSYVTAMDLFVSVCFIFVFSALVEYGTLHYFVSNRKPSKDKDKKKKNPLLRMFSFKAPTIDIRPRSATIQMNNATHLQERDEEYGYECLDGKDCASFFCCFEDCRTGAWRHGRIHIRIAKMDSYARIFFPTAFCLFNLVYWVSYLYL
# T5 sequence (P28472 whole entry): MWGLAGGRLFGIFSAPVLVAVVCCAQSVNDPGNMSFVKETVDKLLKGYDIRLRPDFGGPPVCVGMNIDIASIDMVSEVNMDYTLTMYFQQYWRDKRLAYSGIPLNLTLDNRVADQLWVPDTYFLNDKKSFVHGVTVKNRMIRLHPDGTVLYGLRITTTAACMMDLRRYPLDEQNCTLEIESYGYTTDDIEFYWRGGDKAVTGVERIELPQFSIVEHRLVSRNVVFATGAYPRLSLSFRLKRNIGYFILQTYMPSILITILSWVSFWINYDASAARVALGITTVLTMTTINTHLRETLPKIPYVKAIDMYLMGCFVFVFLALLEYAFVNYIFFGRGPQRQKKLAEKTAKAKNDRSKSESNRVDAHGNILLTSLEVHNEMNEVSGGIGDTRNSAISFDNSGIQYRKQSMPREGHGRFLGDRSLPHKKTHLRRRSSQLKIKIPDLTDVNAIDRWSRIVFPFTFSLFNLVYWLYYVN
# T5 sequence (P34903 whole entry): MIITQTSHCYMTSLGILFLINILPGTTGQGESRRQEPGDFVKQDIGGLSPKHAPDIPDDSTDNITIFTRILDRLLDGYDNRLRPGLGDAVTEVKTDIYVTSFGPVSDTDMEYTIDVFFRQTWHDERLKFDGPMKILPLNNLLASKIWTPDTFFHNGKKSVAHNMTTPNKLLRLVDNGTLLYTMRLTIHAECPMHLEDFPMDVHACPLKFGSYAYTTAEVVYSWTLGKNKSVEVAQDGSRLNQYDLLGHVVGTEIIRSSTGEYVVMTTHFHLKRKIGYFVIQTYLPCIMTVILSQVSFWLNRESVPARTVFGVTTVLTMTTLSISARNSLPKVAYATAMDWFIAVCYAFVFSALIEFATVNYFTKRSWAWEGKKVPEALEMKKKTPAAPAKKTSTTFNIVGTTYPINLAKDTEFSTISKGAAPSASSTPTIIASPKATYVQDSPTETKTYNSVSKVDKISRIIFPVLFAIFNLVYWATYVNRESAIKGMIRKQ
# Assay: Binding affinity for human GABA-A receptor alpha-3-beta-3-gamma-2 subunits in L(tk-) cells
# Assay type: cell-based
row,Ki [nM],SMILES
1,2.6,c1ccc(COc2nn3c(C4CC4)nnc3c3ccccc23)nc1
2,81,Cc1nnc2c3ccccc3c(OCc3ccccn3)nn12

# More lines, now with the values behind:
row,SMILES,Ki [nM]
1,CC(C)c1nnc2c3ccccc3c(OCc3ccccn3)nn12,39
2,c1ccc(-c2nnc3c4ccccc4c(OCc4ccccn4)nn23)cc1,0.71
3,Cc1cccc(COc2nn3c(-c4ccccc4)nnc3c3ccccc23)n1,1.2

# Molecular target: T6, GABA-A receptor; alpha-5/beta-3/gamma-2 (Homo sapiens, UniProt P18507+P28472+P31644)
# T6 sequence (P18507 whole entry): T5 sequence (P18507 whole entry)
# T6 sequence (P28472 whole entry): T5 sequence (P28472 whole entry)
# T6 sequence (P31644 whole entry): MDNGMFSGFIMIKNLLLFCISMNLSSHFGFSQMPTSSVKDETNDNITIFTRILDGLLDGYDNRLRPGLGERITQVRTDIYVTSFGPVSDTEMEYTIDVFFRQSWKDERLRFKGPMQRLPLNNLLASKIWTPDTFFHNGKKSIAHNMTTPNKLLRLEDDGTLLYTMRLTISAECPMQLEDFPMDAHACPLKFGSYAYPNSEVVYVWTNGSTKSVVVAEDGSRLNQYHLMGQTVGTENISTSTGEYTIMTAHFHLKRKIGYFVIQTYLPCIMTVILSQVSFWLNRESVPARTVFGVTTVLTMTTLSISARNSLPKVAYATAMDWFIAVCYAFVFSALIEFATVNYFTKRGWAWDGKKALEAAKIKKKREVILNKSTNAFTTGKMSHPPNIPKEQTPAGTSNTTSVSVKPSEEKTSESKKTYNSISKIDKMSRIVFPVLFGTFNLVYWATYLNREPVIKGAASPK
# Assay: Binding affinity for human GABA-A receptor alpha-5-beta-3-gamma-2 subunits in L(tk-) cells
# Assay type: cell-based
row,Ki [nM],SMILES
1,0.74,c1ccc(COc2nn3c(C4CC4)nnc3c3ccccc23)nc1
2,29,Cc1nnc2c3ccccc3c(OCc3ccccn3)nn12

# The remaining lines, values behind:
row,SMILES,Ki [nM]
1,CC(C)c1nnc2c3ccccc3c(OCc3ccccn3)nn12,8
2,c1ccc(-c2nnc3c4ccccc4c(OCc4ccccn4)nn23)cc1,0.33
3,Cc1cccc(COc2nn3c(-c4ccccc4)nnc3c3ccccc23)n1,2.5

# Molecular target: T2, GABA-A receptor; alpha-1/beta-3/gamma-2 (Homo sapiens)
# Assay: Inverse agonistic activity against GABA-A receptor alpha-1-beta-3-gamma-2 subunits
# Assay type: functional
row,Activity [%],SMILES
1,-20,c1ccc(COc2nn3c(C4CC4)nnc3c3ccccc23)nc1

# Molecular target: T2, GABA-A receptor; alpha-1/beta-3/gamma-2 (Homo sapiens)
# Assay: Partial agonistic activity against GABA-A receptor alpha-1-beta-3-gamma-2 subunits
# Assay type: functional
row,Activity [%],SMILES
1,1,Cc1cccc(COc2nn3c(-c4ccccc4)nnc3c3ccccc23)n1

# Molecular target: T7, GABA-A receptor; alpha-2/beta-3/gamma-2 (Homo sapiens, UniProt P18507+P28472+P47869)
# T7 sequence (P18507 whole entry): T5 sequence (P18507 whole entry)
# T7 sequence (P28472 whole entry): T5 sequence (P28472 whole entry)
# T7 sequence (P47869 whole entry): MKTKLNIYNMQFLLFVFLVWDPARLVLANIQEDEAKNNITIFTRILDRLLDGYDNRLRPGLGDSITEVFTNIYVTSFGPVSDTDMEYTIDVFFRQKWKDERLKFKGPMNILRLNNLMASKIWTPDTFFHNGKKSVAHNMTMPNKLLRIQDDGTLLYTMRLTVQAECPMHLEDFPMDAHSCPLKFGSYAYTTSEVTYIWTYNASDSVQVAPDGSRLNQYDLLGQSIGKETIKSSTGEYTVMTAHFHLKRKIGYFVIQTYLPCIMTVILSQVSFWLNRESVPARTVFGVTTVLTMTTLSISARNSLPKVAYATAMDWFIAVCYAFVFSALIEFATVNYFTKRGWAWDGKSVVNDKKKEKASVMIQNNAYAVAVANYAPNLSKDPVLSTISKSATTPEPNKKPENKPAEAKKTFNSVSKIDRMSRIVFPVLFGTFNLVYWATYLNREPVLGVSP
# Assay: Binding affinity for human GABA-A receptor alpha-2-beta-3-gamma-2 subunits in L(tk-) cells
# Assay type: cell-based
row,Ki [nM],SMILES
1,5.8,c1ccc(COc2nn3c(C4CC4)nnc3c3ccccc23)nc1
2,470,Cc1nnc2c3ccccc3c(OCc3ccccn3)nn12

# Further lines, the molecule ahead of its results:
row,SMILES,Ki [nM]
1,CC(C)c1nnc2c3ccccc3c(OCc3ccccn3)nn12,56
2,c1ccc(-c2nnc3c4ccccc4c(OCc4ccccn4)nn23)cc1,1.7
3,Cc1cccc(COc2nn3c(-c4ccccc4)nnc3c3ccccc23)n1,8

# Molecular target: T4, GABA-A receptor; alpha-5/beta-3/gamma-2 (Homo sapiens)
# Assay: Efficacy at human GABA-A receptor alpha-5-beta-3-gamma-2 subunits
row,Efficacy [%],SMILES
1,11,Cc1cccc(COc2nn3c(-c4ccccc4)nnc3c3ccccc23)n1

# Molecular target: T8, GABA-A receptor; alpha-1/beta-3/gamma-2 (Homo sapiens, UniProt P14867+P18507+P28472)
# T8 sequence (P14867 whole entry): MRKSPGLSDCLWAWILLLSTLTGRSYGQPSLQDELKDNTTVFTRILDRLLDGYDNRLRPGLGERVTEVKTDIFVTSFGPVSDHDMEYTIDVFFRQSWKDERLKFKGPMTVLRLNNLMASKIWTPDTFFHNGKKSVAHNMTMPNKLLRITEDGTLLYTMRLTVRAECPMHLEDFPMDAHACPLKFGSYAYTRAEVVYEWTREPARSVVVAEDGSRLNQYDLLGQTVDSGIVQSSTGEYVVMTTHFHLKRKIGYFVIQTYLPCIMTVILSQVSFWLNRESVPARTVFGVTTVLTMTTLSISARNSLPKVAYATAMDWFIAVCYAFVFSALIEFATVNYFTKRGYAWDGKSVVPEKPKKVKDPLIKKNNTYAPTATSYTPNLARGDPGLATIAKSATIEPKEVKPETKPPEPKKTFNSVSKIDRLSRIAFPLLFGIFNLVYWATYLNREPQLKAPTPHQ
# T8 sequence (P18507 whole entry): T5 sequence (P18507 whole entry)
# T8 sequence (P28472 whole entry): T5 sequence (P28472 whole entry)
# Assay: Binding affinity for human GABA-A receptor alpha-1-beta-3-gamma-2 subunits in L(tk-) cells
row,Ki [nM],SMILES
1,16,c1ccc(COc2nn3c(C4CC4)nnc3c3ccccc23)nc1
2,900,Cc1nnc2c3ccccc3c(OCc3ccccn3)nn12

# The next lines start with the molecule.
row,SMILES,Ki [nM]
1,CC(C)c1nnc2c3ccccc3c(OCc3ccccn3)nn12,160
2,c1ccc(-c2nnc3c4ccccc4c(OCc4ccccn4)nn23)cc1,2.7
3,Cc1cccc(COc2nn3c(-c4ccccc4)nnc3c3ccccc23)n1,8.4
